Measured values taken from patent US5789447A, “Nitric oxide releasing compounds as protective agents in ischemia reperfusion injury” (priority 1995, dated 1998).
“Also recorded” adds a separate entry of the source.

Experiments:
[1] = tested on: Chinese hamster V79 lung fibroblasts; assay: V79 clonogenic survival, hydrogen peroxide cytotoxicity; type: cell-based
Excerpt: Colonies containing more than 50 cells were scored.

XO [2] = target: T1, XO (Bos taurus, UniProt P80457); assay: XO activity by superoxide-induced reduction of ferricytochrome c; type: biochemical
Method: (§1) The activity of XO was monitored in the absence and presence of 1 mM DEA/NO by two different assays. Superoxide-induced reduction of ferricytochrome c to ferrocytochrome c was monitored spectrophotometrically at 550 nm (Fridovich, Handbook of Method for Oxygen Radical Research, pages 213-215 (1985)). The reaction was carried out in a 1 ml volume in aerated phosphate buffer (pH 7.8, 50 mM) containing 50 μM DETAPAC. HX was maintained at 2.5 mM and ferricytochrome c at 20 μM. The reactions were initiated with the addition of XO (final concentration of 0.2 units/ml). The activity of XO in the absence and presence of 1 mM DEA/NO was directly monitored by measuring the production of uric acid spectrophotometrically at 305 nm for 10 min under the same conditions but in the absence of ferricytochrome c. All enzymatic assays and chemical reactions were done at 37° C.

[3] = Chemical controls: DEA/NO or NO with hydrogen peroxide; type: physicochemical; conditions: presence of 1 mM hydrogen peroxide
Method: Anaerobic solutions of 1 mM hydrogen peroxide in 10 mM phosphate buffer, pH 7.4, were mixed with 1 mM NO. […] The rate of decomposition of DEA/NO was unaffected by the presence of 1 mM hydrogen peroxide; likewise, hydrogen peroxide was not consumed by DEA/NO or intermediates of the DEA/NO decomposition reaction as measured by the production of I3^- (Hochanadel, J. Phys. Chem., 56, 587-594 (1952)).

mesencephalic neurons = assay: Morphology of mesencephalic neurons (neurites and somas); type: cell-based, Sprague Dawley rats
Method: (§2) The ventral tegmental mesencephalon was dissected from 14 day old embryos (precisely timed pregnant Sprague Dawley rats; Zivic-Miller, Allison Park, Pa.) under sterile conditions and mechanically dissociated into complete culture medium. The culture medium consisted of a 1:1 mixture of modified minimum essential medium and nutrient mixture F-12 supplemented with 6 mg/ml D-gluose, 2 mM glutamine, 0.5 U/ml penicillin G, 0.5 mg/ml streptomycin (all from Gibco, Grand Island, N.Y.) and 15% equine serum (Hyclone, Logan, Utah). Cells were plated into multiwell plates that were previously coated with poly-D-lysine (15 μg/ml) and laminin (10 μg/ml) at a density of 40,000 cells/cm^2 (Costar). The cells were maintained for 5-7 days at 37° C. in an atmosphere of 95% air and 5% CO2 saturated with H2 O. On the fifth day of culture 1 μM cytosine-β-D-arabinofuranoside was added to inhibit glial cell growth.
When cells were exposed to hydrogen peroxide for 1 hr, varicosities formed in the neurites and somas swelled. Exposure to HX/XO for as short as 5 min elicited similar morphological changes in mesencephalic neurons.

XO [4] = target: T1, XO; assay: XO activity by uric acid production at 305 nm; type: biochemical
Method: as §1

[5] = tested on: Chinese hamster V79 lung fibroblasts; assay: V79 clonogenic survival, hypoxanthine/xanthine oxidase (HX/XO) cytotoxicity
Method: Chinese hamster V79 lung fibroblasts were cultured in F12 medium supplemented with 10% fetal calf serum and antibiotics. Cell survival was assessed by clonogenic assay with 85-95% plating efficiency. Stock cultures of exponentially growing cells were trypsinized, rinsed, and plated (7×10^5 cells/dish) into a number of 100 cm^2 petri dishes and incubated 16 hr at 37° C. prior to experimental protocols.
It has been shown that exposure of V79 cells to hydrogen peroxide results in dose-dependent cytotoxicity (Mitchell et al., supra).
HX and XO were purchased from Boehringer Co. (Indianapolis, Ind.). Nitrite, diethylamine, sulfinamide, diethylenetriaminepentaacetic acid (DETAPAC) and N-(1-naphthyl)ethylenediaminedihydrogenchloride (NEDD) were purchased from Aldrich (Milwaukee, Wis.). Cytosine-β-D-arabinofuranoside and ferricytochrome c were purchased from Sigma (St. Louis, Mo.). DEA/NO and SPER/NO were synthesized as previously described (Maragos et al., (1991), supra).
Exponentially growing cultures of Chinese hamster V79 fibroblasts were exposed to either HX/XO (final concentration of HX was 0.5 mM; 0.08 units/ml XO were used) for various amounts of time (FIG. 1A) or to various concentrations of hydrogen peroxide for one hour (FIG. 1B). […] Additionally, 1 mM DEA/NO was added to medium in the absence of cells, incubated at 37° C. for 1 hr or 16 hrs, and then added just prior to the addition of hydrogen peroxide to evaluate the effects of DEA/NO which had released NO. After treatment, cell monolayers were rinsed twice with phosphate-buffered saline (PBS), trypsinized, counted and plated in triplicate for macroscopic colony formation. Each dose determination was plated in triplicate and experiments were repeated a minimum of two times. Plates were incubated for 7 days, after which colonies were fixed with methanol/acetic acid (3:1), stained with crystal violet, and counted. Colonies containing more than 50 cells were scored.

[6] = tested on: ventral mesencephalic cells; assay: [3H]dopamine uptake after hydrogen peroxide or HX/XO exposure; type: cell-based, Sprague Dawley rats
Method: as §2
Uptake of dopanine by dopaminergic neurons was assayed as follows. The cells in each well were washed three times with 1 ml PBS containing 6 mg/ml glucose and thereafter Dulbecco's modified essential medium (Quality Biological, Inc., Farmingham, Mass.) containing 6 mg/ml D-glucose, 50 μM ascorbic acid, and 5×10^-8 M [^3 H]dopamine (NEN, Boston, Mass.; specific activity of […]) was added and incubated for 15 min at 37° C. [^3 H]dopamine uptake was stopped by aspirating the incubation solution and washing the cells three times with ice-cold PBS containing 6 mg/ml D-glucose. The cells were removed by washing the wells with an equal volume of 0.2N NaOH and 0.2N HCl containing 0.02% Triton X-100. The residual intracellular radioactivity in the cells was determined by scintillation spectroscopy.
Accordingly, ventral mesencephalic cell cultures were exposed to 100 μM H2 O2 for 1 hr in the presence and absence of 100 μM DEA/NO and evaluated for their ability to take up dopamine.
In a separate study, cells were cultured for 7 days and then exposed to 50 or 100 μM hydrogen peroxide for 60 min or to 0.04 units/ml HX/XO for 5 or 10 min in the absence or presence of 100 μM DEA/NO. The cells were washed with PBS containing 6 g/l D-glucose, culture medium was added, and the cells were incubated for 18 hr. The ability of the cells (6 wells of 450,000 cells/well per group) to take up ^3 [H]-dopamine was measured. These cells were exposed to ten times less hydrogen peroxide or HX/XO than the V79 cells described above.

neuronal cell death = conditions: Lafon-Cazal et al.; cited from earlier work
NMDA receptor = conditions: U.S. Pat. No. 5,234,956; cited from earlier work
[7] = tested on: endothelial cell monolayers; conditions: Radomski et al.; cited from earlier work
platelet aggregation = conditions: Rubanyi et al.; cited from earlier work
[8] = tested on: Leukocyte-endothelial cell adhesive interactions; conditions: postcapillary venules; Kubes et al. 1991; cited from earlier work
lung tissue = conditions: high concentrations in the gas phase; cited from earlier work
[9] = tested on: Primary neuronal cell cultures; conditions: as high as 1 mM; cited from earlier work
[10] = Saran et al. 1990; cited from earlier work
[11] = Kanner et al.; cited from earlier work
[12] = 100 μM with hydrogen peroxide or HX/XO

T1 sequence (P80457 whole entry): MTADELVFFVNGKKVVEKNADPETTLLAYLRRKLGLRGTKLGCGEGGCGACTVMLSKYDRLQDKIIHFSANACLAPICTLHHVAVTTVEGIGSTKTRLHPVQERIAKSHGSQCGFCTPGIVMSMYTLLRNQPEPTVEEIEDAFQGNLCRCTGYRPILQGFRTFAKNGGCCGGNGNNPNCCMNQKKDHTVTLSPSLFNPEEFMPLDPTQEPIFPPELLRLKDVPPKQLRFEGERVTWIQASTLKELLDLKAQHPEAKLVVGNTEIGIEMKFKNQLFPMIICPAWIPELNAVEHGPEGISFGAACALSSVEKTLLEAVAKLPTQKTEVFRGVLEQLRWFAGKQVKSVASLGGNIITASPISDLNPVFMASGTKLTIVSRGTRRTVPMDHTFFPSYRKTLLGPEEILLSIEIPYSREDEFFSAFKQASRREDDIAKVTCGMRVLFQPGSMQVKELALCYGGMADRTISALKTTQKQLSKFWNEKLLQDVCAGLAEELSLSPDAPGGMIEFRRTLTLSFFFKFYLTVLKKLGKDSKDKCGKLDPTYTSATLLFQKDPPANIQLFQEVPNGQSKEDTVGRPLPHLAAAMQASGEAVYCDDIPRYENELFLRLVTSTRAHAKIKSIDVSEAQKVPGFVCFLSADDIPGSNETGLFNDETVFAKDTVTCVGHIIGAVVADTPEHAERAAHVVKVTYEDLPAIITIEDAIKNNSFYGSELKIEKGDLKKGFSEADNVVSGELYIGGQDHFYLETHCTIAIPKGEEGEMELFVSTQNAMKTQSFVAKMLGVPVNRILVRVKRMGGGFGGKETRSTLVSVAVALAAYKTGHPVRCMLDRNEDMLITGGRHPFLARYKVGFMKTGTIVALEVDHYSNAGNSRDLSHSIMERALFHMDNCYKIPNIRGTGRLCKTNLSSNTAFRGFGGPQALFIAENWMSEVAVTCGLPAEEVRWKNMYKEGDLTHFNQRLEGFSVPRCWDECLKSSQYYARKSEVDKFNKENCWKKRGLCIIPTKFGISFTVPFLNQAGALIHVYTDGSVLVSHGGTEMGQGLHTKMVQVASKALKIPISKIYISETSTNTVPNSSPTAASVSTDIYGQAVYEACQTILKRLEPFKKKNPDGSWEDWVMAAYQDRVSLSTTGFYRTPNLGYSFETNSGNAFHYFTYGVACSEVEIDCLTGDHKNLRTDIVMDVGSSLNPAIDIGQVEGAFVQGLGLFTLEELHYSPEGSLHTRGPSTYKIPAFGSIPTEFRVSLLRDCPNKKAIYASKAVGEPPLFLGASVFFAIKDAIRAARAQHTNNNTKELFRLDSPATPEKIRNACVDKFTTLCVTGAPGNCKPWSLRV

CCN(CC)/[N+]([O-])=N/[O-].[Na+] [DEA/NO]
protection against hydrogen peroxide cytotoxicity ([1]; 1 mM, added just prior to hydrogen peroxide, 1 hr exposure): nearly complete protection
protection against hydrogen peroxide cytotoxicity ([1]; 1 mM, allowed to release NO for 1 hr prior to hydrogen peroxide): only modest protection
effect on hydrogen peroxide cytotoxicity ([1]; 1 mM, incubated 16 hr in medium prior to hydrogen peroxide): enhanced the cytotoxicity of hydrogen peroxide
effect of treatment after hydrogen peroxide ([1]; 1 hr hydrogen peroxide followed by 1 hr treatment with 1 mM): did not treat oxygen free radical mediated tissue damage
inhibition of XO activity, production of superoxide (cytochrome c reduction) (XO [2]; 1 mM, preincubated with HX/XO): did not inhibit the activity of XO
SOD sensitive ferricytochrome c reduction (XO [2]; presence of DEA/NO): quenching; also recorded: inhibited
rate of decomposition / rate of formation of NO [3]: not altered; also recorded: unaffected
morphological changes (mesencephalic neurons; 100 μM alone, 1 hr): failed to cause morphological changes
abnormalities in the neurites and somas (mesencephalic neurons; [12]): did not demonstrate abnormalities in the neurites and somas
inhibition of XO activity, uric acid production (XO [4]; 1 mM, preincubated with HX/XO): did not inhibit the activity of XO
uric acid production (UV 305 nm) / XO substrate turnover (XO [4]; presence of DEA/NO): not inhibited; also recorded: nor affect XO substrate turnover
protection against HX/XO-induced cell killing ([5]; 0.1 mM): marginal protection
protection against HX/XO-induced cell killing ([5]; 1 mM): significantly protected against cell killing
[3H] Dopamine Uptake ([6]; 100 μM DEA/NO with 50 μM H2O2, 60 min): 2.8 ± 0.11 pmol/well/15 min
[3H] Dopamine Uptake ([6]; 100 μM DEA/NO with 100 μM H2O2, 60 min): 2.6 ± 0.22 pmol/well/15 min
[3H] Dopamine Uptake ([6]; 100 μM DEA/NO with 0.04 U/ml HX/XO, 5 min): 2.6 ± 0.15 pmol/well/15 min
[3H] Dopamine Uptake ([6]; 100 μM DEA/NO with 0.04 U/ml HX/XO, 10 min): 2.3 ± 0.10 pmol/well/15 min
[3H] Dopamine Uptake ([6]; 100 μM DEA/NO, no addition (None)): 2.7 ± 0.11 pmol/well/15 min
protection of dopamine uptake [6, 12]: complete protection
retained function (dopamine uptake) ([6]; hydrogen peroxide in presence of DEA/NO (100 μM, 1 hr), FIG. 3): ~100%

CC1(C)CCC=[N+]1[O-] [DMPO]
reduction of neuronal cell death (neuronal cell death): more efficiently than the nitric oxide synthase inhibitor L-N-nitroarginine

O=[N+]([O-])OCC(CO[N+](=O)[O-])O[N+](=O)[O-] [nitroglycerin]
NMDA receptor-mediated neuronal damage (NMDA receptor): reduce NMDA receptor-mediated neuronal damage

nitric oxide [NO]
platelet adhesion to endothelial cell monolayers [7]: reduce platelet adhesion to endothelial cell monolayers
platelet aggregation (platelet aggregation): block platelet aggregation
leukocyte-endothelial cell adhesive interactions [8]: inhibited
lung tissue damage (lung tissue): damages lung tissue
adverse effects in primary neuronal cell cultures [9]: no adverse effects
reaction rate constant for NO and O2 [10]: 5.6×10^7 M^-1 S^-1
quenching of Fenton-type oxidation [11]: could quench Fenton-type oxidation
